Experimental data: patent US7060451B2, “Methods for screening GABA-modulatory compounds for specified pharmacological activities” (Neurogen Corporation, priority 1999, dated 2006)
Marks after values point to notes of the source that are not given here.

What was measured:
rats [1] = experiment: Porsolt forced swim test; format: in vivo; conditions: rat, administered IV, statistically significant response
Excerpt: The effects measured in this model have been correlated to antidepressant efficacy for drugs. The paradigm of this model is that an effective antidepressant compound will cause a rat to make greater attempts to escape a water-filled cylinder than a rat given vehicle only.
Animals used in this study were non-naive male Sprague Dawley Rats (SASCO, St. Louis) weighing between 280-350 grams. The test apparatus consists of 6 clear Plexiglas cylinders 40 cm high×19 cm wide. Cylinders are filled to 18 cm with 25° C. water. Each rat is placed in a cylinder for a 15 minute training session. Following either subchronic or acute dosing of either vehicle (0.5% methylcellulose) of compound, animals are brought back 24 hours later for a 5 minute test session. These test session is videotaped for later scoring.
Subchronic dosing consists of administering drug three times in the 24-hour period between training and testing. The drug is administered 24 hrs., 5 hrs., and 1 hr. prior to the test session. Acute dosing consists of administering the drug once, 1 hour prior to the test session. Scoring is done using a time-sampling computer program written in Visual Basic and run in DOS. […] These sampling score are then converted into percentages of the test session.

[2] = target: α1β2γ2 GABAA subtype receptor (Homo sapiens, UniProt P14867+P18507); experiment: oocyte electrophysiology, two electrode voltage-clamp, potentiation of GABA current; format: cell-based; conditions: Xenopus oocytes, human subunits, GABA EC10; for Emax: read-out: oocyte electrophysiology maximum potentiation (%) α1β2γ2
Chain of α1β2γ2 GABAA subtype receptor (P14867 28-456): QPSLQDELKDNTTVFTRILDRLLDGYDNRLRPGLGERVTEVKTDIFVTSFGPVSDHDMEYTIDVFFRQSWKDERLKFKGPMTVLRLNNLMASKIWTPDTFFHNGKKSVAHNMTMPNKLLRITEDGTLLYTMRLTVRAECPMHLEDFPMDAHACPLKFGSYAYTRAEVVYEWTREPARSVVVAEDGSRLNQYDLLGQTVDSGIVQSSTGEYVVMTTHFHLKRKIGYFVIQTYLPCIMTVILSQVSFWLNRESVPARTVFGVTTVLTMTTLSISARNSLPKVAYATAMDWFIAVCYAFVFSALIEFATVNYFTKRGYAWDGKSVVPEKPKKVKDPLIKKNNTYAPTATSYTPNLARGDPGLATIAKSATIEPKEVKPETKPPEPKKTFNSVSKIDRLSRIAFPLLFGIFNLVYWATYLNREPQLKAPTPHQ
Chain of α1β2γ2 GABAA subtype receptor (P47870 25-512 partner limits assumed): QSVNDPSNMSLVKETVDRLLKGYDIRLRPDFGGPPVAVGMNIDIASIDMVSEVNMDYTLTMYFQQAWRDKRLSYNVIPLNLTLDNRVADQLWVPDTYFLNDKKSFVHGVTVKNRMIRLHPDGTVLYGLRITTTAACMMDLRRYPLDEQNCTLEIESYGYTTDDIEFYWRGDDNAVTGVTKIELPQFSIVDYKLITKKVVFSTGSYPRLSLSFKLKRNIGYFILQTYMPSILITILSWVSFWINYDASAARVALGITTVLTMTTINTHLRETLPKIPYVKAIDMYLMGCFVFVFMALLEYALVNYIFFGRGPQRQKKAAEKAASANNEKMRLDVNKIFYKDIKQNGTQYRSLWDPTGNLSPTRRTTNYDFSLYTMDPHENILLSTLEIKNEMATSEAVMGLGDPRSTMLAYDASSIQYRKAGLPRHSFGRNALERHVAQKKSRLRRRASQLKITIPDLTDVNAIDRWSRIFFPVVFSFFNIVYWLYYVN
Chain of α1β2γ2 GABAA subtype receptor (P18507 40-475): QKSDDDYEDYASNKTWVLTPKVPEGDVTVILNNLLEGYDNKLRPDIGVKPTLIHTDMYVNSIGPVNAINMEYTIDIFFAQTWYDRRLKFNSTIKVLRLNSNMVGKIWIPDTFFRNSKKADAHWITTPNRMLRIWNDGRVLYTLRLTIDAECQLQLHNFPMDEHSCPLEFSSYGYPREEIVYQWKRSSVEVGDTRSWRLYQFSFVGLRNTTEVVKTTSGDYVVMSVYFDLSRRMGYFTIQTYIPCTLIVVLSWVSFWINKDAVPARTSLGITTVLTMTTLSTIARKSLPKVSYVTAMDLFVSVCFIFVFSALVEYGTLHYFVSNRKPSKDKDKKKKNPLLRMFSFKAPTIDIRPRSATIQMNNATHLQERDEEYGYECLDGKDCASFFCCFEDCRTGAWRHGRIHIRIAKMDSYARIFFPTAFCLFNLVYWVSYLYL
Method: (§1) Assays are carried out as described previously in White and Gurley, 1995 and White, et al., 1995. Xenopus laevis oocytes are enzymatically isolated and injected with non-polyadenylated cRNA for human derived α, β and γ GABAA subunits, respectively. In more preferred embodiments cRNA for the α1β2γ2, α2β3γ2, α3β3γ2, and α5β3γ2 subunit combinations are injected. Only one of these subunit combinations is injected per cell. For each subunit combination, sufficient message is injected to result in current amplitudes of >10 nA when 1 μM GABA is applied. Electrophysiological recordings are carried out using the two electrode voltage-clamp technique at a membrane holding potential of −70 mV.
(§2) Compounds are evaluated against a GABA concentration that evokes <10% (EC10) of the maximal evocable GABA current. Each oocyte is exposed to increasing concentrations of compound in order to evaluate a concentration/effect relationship.
(§3) Specificity of a compound for the Ro15-1788 site is determined following completion of the concentration/effect curve. After washing the oocyte sufficiently to remove previously applied compound, the oocyte is exposed to GABA and 1 μM Ro15-1788, followed by exposure to GABA, 1 μM Ro15-1788, and compound. Percent change due to addition of compound is calculated as described above. Any percent change observed in the presence of Ro15-1788 is subtracted from the percent changes in current amplitude observed in the absence of 1 μM Ro15-1788. These net values are used for the calculation of average activity and EC50 values.
(§4) To evaluate average activity and EC50 values, the concentration/effect data are averaged across cells and fit to the logistic equation. Average values are reported as mean ±standard error.

[3] = target: α2β3γ2 GABAA subtype receptor (Homo sapiens, UniProt P18507+P47869); experiment: as above; format: cell-based; conditions: Xenopus oocytes, human subunits, GABA EC10
Chain of α2β3γ2 GABAA subtype receptor (P47869 29-451): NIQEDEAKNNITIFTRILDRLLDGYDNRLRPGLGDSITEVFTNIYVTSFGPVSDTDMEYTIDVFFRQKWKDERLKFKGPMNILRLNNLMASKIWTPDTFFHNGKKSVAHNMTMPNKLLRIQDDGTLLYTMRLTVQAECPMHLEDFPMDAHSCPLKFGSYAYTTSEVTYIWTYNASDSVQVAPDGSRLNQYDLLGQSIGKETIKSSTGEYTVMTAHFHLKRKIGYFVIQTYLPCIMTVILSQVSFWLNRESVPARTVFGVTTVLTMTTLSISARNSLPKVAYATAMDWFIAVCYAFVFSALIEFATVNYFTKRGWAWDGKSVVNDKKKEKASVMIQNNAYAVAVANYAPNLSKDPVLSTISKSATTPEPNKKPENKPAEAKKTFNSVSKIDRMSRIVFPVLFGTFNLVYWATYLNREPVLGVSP
Chain of α2β3γ2 GABAA subtype receptor (P28472 26-473 partner): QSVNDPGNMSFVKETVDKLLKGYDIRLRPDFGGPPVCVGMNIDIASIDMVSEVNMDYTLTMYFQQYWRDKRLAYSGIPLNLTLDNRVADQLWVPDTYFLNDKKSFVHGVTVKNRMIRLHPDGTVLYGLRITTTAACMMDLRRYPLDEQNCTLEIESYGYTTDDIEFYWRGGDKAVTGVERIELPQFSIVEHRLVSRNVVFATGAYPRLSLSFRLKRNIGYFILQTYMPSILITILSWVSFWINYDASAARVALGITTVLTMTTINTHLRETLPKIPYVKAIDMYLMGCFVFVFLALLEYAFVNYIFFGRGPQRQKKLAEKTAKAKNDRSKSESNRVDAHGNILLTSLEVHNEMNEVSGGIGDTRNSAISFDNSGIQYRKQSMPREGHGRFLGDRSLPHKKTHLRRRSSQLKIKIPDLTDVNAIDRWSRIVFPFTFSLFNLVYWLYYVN
Chain of α2β3γ2 GABAA subtype receptor (P18507 40-475): as the sequence (P18507 40-475) above
Method: as §1, §2, §3, §4

[4] = target: α3β3γ2 GABAA subtype receptor (Homo sapiens, UniProt P18507+P34903); experiment: as above; format: cell-based; conditions: Xenopus oocytes, human subunits, GABA EC10
Chain of α3β3γ2 GABAA subtype receptor (P34903 29-492): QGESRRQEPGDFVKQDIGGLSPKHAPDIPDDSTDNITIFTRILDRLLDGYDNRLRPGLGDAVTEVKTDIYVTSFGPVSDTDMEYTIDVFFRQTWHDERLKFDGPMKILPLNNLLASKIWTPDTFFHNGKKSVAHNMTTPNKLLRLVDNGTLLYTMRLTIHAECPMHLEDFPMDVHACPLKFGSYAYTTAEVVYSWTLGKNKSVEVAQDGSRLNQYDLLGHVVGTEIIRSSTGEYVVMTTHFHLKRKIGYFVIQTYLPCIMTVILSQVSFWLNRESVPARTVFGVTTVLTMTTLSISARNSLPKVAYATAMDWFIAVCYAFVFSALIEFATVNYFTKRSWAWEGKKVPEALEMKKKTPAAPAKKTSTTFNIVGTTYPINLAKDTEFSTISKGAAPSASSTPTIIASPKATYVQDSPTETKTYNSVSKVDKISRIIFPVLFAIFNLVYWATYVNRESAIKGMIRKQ
Chain of α3β3γ2 GABAA subtype receptor (P28472 26-473 partner): as the sequence (P28472 26-473 partner) above
Chain of α3β3γ2 GABAA subtype receptor (P18507 40-475): as the sequence (P18507 40-475) above
Method: as §1, §2, §3, §4

[5] = target: α5β3γ2 GABAA subtype receptor (Homo sapiens, UniProt P18507+P31644); experiment: as above; format: cell-based; conditions: Xenopus oocytes, human subunits, GABA EC10; for Emax: read-out: oocyte electrophysiology maximum potentiation (%) α5β3γ2
Chain of α5β3γ2 GABAA subtype receptor (P31644 32-462): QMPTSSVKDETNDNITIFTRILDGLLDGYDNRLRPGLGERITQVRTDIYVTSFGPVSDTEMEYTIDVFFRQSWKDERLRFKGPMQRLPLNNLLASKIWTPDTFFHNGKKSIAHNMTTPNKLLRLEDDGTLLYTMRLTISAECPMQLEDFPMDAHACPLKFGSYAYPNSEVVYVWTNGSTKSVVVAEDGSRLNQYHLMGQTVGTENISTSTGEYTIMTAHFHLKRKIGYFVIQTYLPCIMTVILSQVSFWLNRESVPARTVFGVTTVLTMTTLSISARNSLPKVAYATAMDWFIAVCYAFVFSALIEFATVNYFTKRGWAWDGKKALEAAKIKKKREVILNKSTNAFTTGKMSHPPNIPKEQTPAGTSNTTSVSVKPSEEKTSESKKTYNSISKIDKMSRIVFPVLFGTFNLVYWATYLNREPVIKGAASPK
Chain of α5β3γ2 GABAA subtype receptor (P28472 26-473 partner): as the sequence (P28472 26-473 partner) above
Chain of α5β3γ2 GABAA subtype receptor (P18507 40-475): as the sequence (P18507 40-475) above
Method: as §1, §2, §3, §4

[6] = target: GABAA receptors (benzodiazepine site, Ro15-1788 binding sites), rat cortex; experiment: Ro15-1788 competition binding assay, rat cortex membranes; conditions: displacement of 3H Ro15-1788, read-out: Ro15-1788 binding, K1
Method: Rat cortex membranes are prepared by homogenizing one or two previously frozen rat cortexes in 30 ml of 25 mM Tris Buffer, pH 7.4. The homogenate is centrifuged for 10 minutes at 500× g. The supernatant is then transferred to a clean centrifuge tube and the pellet discarded. The supernatant is spun for 20 minutes at 48,000× g. The supernatant from this spin is discarded and the pellet is resuspended in 30 ml of 25 mM Tris Buffer, pH 7.4 and centrifuged for an additional 10 minutes at 48,000× g. The supernatant from the final spin is discarded and the membrane pellet is resuspended in 100 mL Tris buffer per gram of cortex used.
The cortex membrane preparation is used to perform either percent inhibition or competition binding assays. In order to determine percent inhibition 300 μl of resuspended membranes are mixed with 200 μl ^3H labeled Ro15-1788 (final concentration 2.5 nM) and incubated for 1 hour on ice in the presence of 2 μl test compound in DMSO (final concentration 4 μM). Membranes are harvested onto untreated filtermats. The filtermats are dried and the ^3H Ro15-1788 signal is counted in a scintillation counter. Nonspecific binding is determined by displacement of ^3H Ro15-1788 with 10 μM Diazepam (RBI) or any other compound known to bind tightly at the benzodiazepine site.
K1 values are calculated according to the Cheng-Prussof equation.

rats [7] = experiment: spontaneous locomotor activity; format: in vivo; conditions: rat
Method: Spontaneous locomotor activity can be measured to determine sedative effects of compounds. Locomotor activity is measured in eight computerized Digiscan-16 Animal Activity Monitors (Omnitech Electronics, Columbus, Ohio) equipped with 48 infrared photocell emitters and detectors. Each box is constructed of Plexiglas sides and floor. Horizontal activity is detected by a set of horizontal sensors on the front to back walls and a second group of sensors on the side to side walls located 5 cm above the cage floor. Vertical activity is detected by a third set of sensors on the side to side walls located 13.5 cm above the cage floor. The rats are tested in the presence of white noise (62 dB) and red St light (60 watt).
Test compound is administered IV in a 50% PEG vehicle 5 minutes prior to the test session. A range of compound doses is typically used and 6 to 8 rats are tested at each dose. The animal's movement time, vertical activity, and total distance traveled are tracked over a 15 minute test session. A sedative, or hypnotic, effect in the spontaneous locomotor activity model is defined by a decrease in any two of these three measures relative to animals given vehicle alone.

rats [8] = experiment: elevated plus maze; format: in vivo; conditions: rat, IV, statistically significant response (anxiolytic effect)
Method: The elevated plus maze model capitalizes on rats' innate fear of open, elevated places. The test apparatus is an elevated plus maze consisting of two open arms and two closed arms. A rat will naturally chose to spend more time on the closed arms of the maze than on the open arms but that if an efficacious anxiolytic compound is administered to the rat prior to the test the amount it of time the rat spends in the open arms is increased.
Test compound is administered IV in a 50% PEG (polyethylene glycol) vehicle 5 minutes prior to the test session. A range of compound doses is typically used and 8-10 rats are tested at each dose. The rat is placed in the center of the maze facing one of the open arms. The animal's locomotion is tracked over a five minute test session using photocells interfaced to a computer. The computer measures the number of entries into each arm and the time spent on each arm. An anxiolytic effect in the elevated plus maze model is defined by an increase in the percentage of time spent on the open arms in compound versus vehicle treated animals.

rats [9] = experiment: spatial water maze; format: in vivo; conditions: rat
[10] = test system: bicuculline-induced seizures in rats; experiment: bicuculline seizure threshold test; format: in vivo; conditions: rat, compound infused 5 minutes before bicuculline
Excerpt: This test provides a measure of whether the test compound is proconvulsant by measuring whether the test compound produces any change in the dose of the seizure inducing drug, bicuculline, needed to elicit seizures in rats. Test compounds must show <25% decrease in seizure threshold or p>0.05 significance to be considered as drug candidates.
Adult male Sprague-Dawley rats (175-300 g) are weighed and placed in a rat restrainer. A Teflon® indwelling catheter is placed in one of the lateral tail veins and held in place with surgical tape. The catheter and a 3.0 cc syringe are connected by a length of PE-100 tubing fitted with Hamilton male and female adapter. Patency of catheter placement is tested by backflow of venous blood and ready infusion of less than 2 ml of saline solution. Animals are placed in a clear acrylic cage for behavioral observation.
The test compound is prepared in either 25% or 50% polyethylene glycol 400 (PEG) vehicle. A bicuculline (BIC) stock solution of 1.0 mg/ml BIC in 25% PEG/75% 1N HCl is also prepared. […]
Test compound is infused 5 minutes prior to the start of bicuculline infusion. […] The time elapsed from the start of bicuculline infusion to first myoclonic jerk (first head/neck twitch), the initiation of full myoclonus (writhing), and final forelimb extension is all recorded using a digital stopwatch. […]

rats [11] = experiment: step-down passive avoidance; format: in vivo; conditions: rat, IV, cognitive enhancement
Excerpt: In step-down passive avoidance a rat is placed on a platform located in the center of an electrified grid floor that is contained within a large (45 cm×45 cm×50 cm) white translucent Plexiglas® enclosure. The natural inclination of the rat is to step off the platform and investigate its surroundings. […] Each time the animal steps off the platform it receives a mild foot shock of 2 mAmps×6 sec. Following each shock the animal is removed from the box, placed in its cage for a one minute inter-trial interval, and then returned to the platform. The latency to step down on each trial, the number of trials taken to reach criterion during training and the retention latency are collected.
Testing is conducted approximately 24 hrs. after training. Drug-free animals are placed on the platform in the box in which they will have been trained and the latency to step down onto the grid floor is recorded for one trial as a measure of memory retention.

Row | Structure (SMILES) | Porsolt swim test, minimal efficacious dose (rats [1]) [mg/kg] | oocyte electrophysiology maximum potentiation (%) α1β2γ2 [2] [%] | oocyte electrophysiology maximum potentiation (%) α2β3γ2 [3] [%] | oocyte electrophysiology maximum potentiation (%) α3β3γ2 [4] [%] | oocyte electrophysiology maximum potentiation (%) α5β3γ2 [5] [%] | Ki [6] [nM] | elevated plus maze, minimal efficacious dose (rats [8]) [mg/kg] | Emax [5] [%] | also measured
1 | CC(C)(C)OC(=O)c1ncn2c1C1CCCN1C(=O)c1c(Br)cccc1-2 (centres unmarked) [Ro16-6028, reference compound] | 1 | 40 | 37 | 76 | 64 | 0.48 | – | – | EC50 [2]: 3 nM; EC50 [3]: 5 nM; EC50 [4]: 5 nM; EC50 [5]: 3 nM; spontaneous locomotor activity, minimal efficacious dose (rats [7]; IV, sedation as side effect (Tables V and IX)): 0.06 mg/kg
2 | CCOc1ccc(-n2c(=O)c3c[nH]c4ccccc4n-3c2=O)cc1 [compound 1] | 20 | 12 | – | – | 15 | – | 0.03 | -11 | EC50 [5]: 88 nM
3 | CCOc1ccc(NC(=O)c2c[nH]c3c2C(=O)CCC3)cc1 [compound 3] | 20 | – | – | – | 38 | – | 0.125 | -11 | spontaneous locomotor activity, minimal efficacious dose (rats [7]; in vivo, iv, 15 min): 4 mg/kg
4 | COc1ccc(F)c(-c2ncc3[nH]c4c(c3n2)CCCC4)c1 [compound 11] | – | – | 21 | 36 | – | 33 | – | -22 | Emax [2]: -11%; cognitive model (spatial water maze), minimal efficacious dose (rats [9]; PO): PO = 10.0^†† mg/kg
5 | O=C(Nc1ccccc1)c1c[nH]c2c1C(=O)CCCC2 [compound 13] | – | – | 9 | 14 | – | 6.3 | – | -20 | Emax [2]: -17%; cognitive model (spatial water maze), minimal efficacious dose (rats [9]; IV): 0.125^†† mg/kg
6 | CNCc1ccc(NC(=O)c2c[nH]c3c2C(=O)CCCC3)cc1 [compound 4] | 20 | – | – | – | 38 | – | 0.5 | 0 | –
7 | O=C1C2C=Nc3ccccc3C2=NN1c1ccccc1 (centres unmarked) [CGS 8216, reference compound] | – | −26 | −10 | −8 | −39 | – | – | – | bicuculline seizure threshold, mean percent decrease in seizure threshold over the dose range studied [10]: 50%; cognitive model (step-down passive avoidance), minimal efficacious dose (rats [11]): 0.06 mg/kg
